System: doubly labelled quadruplex F21T (F-21-T, FAM-d[GGGTTAGGGTTAGGGTTAGGG]-TAMRA)
Test: FRET-melting assay with F21T quadruplex
Type: binding
Settings: F21T 0.2 μM, Caco.K buffer, 5 molar equivalents of TASQ; means of 3 experiments
Method: The lyophilized DNA strands (purchased from Eurogentec, Seraing, Belgium) were firstly diluted at 500 μM in deionized water (18.2 MΩ·cm resistivity). The DNA batch was prepared in a Caco.K buffer, comprised of 10 mM lithium cacodylate buffer (pH 7.2) plus 10 mM KCl/90 mM LiCl.
The quadruplex structure was prepared by mixing 40 μL of the constitutive strand (500 μM) with 8 μL of a lithium cacodylate buffer solution (100 mM, pH 7.2), plus 8 μL of a KCl/LiCl solution (100 mM/900 mM) and 24 μL of water. The final DNA concentration was theoretically 250 μM. The actual concentration of the DNA was determined through a dilution to 1 μM theoretical concentration through UV spectral analysis at 260 nm (after 5 min at 90° C.) with the following molar extinction coefficient values: 268300 M^−1·cm^−1 (F21 T). The higher-order DNA structure was folded as follows: solutions were heated (90° C., 5 min), cooled on ice (7 h) and then stored at least overnight (4° C.). […] Final data were analyzed with Excel (Microsoft Corp.) and OriginPro® 9.1 (OriginLab Corp.). […]
The apparent affinity of each G4-ligands is quantified via fluorescence resonance energy transfer (FRET)-melting experiments. […]

## NCCN(CC(=O)NCCNC(=O)CN1CCN(CC(=O)NCCNC(=O)CN(CCN)C(=O)Cn2cnc3c(=O)[nH]c(N)nc32)CCN(CC(=O)NCCNC(=O)CN(CCN)C(=O)Cn2cnc3c(=O)[nH]c(N)nc32)C(CNC(=O)CCCC[C@H]2SCC3NC(=O)NC32)CN(CC(=O)NCCNC(=O)CN(CCN)C(=O)Cn2cnc3c(=O)[nH]c(N)nc32)CC1)C(=O)Cn1cnc2c(=O)[nH]c(N)nc21 (some centres unmarked) [BioTASQ]
  Thermal stabilization ΔT1/2: 2.2 °C

## NCCN(CC(=O)NCCNC(=O)CN1CCN(CC(=O)NCCNC(=O)CN(CCN)C(=O)Cn2cnc3c(=O)[nH]c(N)nc32)CCN(CC(=O)NCCNC(=O)CN(CCN)C(=O)Cn2cnc3c(=O)[nH]c(N)nc32)CCN(CC(=O)NCCNC(=O)CN(CCN)C(=O)Cn2cnc3c(=O)[nH]c(N)nc32)CC1)C(=O)Cn1cnc2c(=O)[nH]c(N)nc21 [^PNADOTASQ]
  Thermal stabilization ΔT1/2: 9.1 °C

From US12655158B2, “Biomimetic G-quartet compounds” (CENTRE NATIONAL DE LA RECHERCHE SCIENTIFIQUE, priority 2020, dated 2026)
